Data as given in patent publication US12084436B2, “Heterocyclic compound” (Takeda Pharmaceutical Company Limited, priority 2019, dated 2024).

Target: T1, HDAC6 enzyme (Homo sapiens, UniProt Q9UBN7)
T1 construct: prepared by transducing full length HDAC6 gene into Sf-9 insect cells; GST; purchased SignalChem; host or cells: Sf-9 insect cells
T1 sequence (Q9UBN7 1-1215): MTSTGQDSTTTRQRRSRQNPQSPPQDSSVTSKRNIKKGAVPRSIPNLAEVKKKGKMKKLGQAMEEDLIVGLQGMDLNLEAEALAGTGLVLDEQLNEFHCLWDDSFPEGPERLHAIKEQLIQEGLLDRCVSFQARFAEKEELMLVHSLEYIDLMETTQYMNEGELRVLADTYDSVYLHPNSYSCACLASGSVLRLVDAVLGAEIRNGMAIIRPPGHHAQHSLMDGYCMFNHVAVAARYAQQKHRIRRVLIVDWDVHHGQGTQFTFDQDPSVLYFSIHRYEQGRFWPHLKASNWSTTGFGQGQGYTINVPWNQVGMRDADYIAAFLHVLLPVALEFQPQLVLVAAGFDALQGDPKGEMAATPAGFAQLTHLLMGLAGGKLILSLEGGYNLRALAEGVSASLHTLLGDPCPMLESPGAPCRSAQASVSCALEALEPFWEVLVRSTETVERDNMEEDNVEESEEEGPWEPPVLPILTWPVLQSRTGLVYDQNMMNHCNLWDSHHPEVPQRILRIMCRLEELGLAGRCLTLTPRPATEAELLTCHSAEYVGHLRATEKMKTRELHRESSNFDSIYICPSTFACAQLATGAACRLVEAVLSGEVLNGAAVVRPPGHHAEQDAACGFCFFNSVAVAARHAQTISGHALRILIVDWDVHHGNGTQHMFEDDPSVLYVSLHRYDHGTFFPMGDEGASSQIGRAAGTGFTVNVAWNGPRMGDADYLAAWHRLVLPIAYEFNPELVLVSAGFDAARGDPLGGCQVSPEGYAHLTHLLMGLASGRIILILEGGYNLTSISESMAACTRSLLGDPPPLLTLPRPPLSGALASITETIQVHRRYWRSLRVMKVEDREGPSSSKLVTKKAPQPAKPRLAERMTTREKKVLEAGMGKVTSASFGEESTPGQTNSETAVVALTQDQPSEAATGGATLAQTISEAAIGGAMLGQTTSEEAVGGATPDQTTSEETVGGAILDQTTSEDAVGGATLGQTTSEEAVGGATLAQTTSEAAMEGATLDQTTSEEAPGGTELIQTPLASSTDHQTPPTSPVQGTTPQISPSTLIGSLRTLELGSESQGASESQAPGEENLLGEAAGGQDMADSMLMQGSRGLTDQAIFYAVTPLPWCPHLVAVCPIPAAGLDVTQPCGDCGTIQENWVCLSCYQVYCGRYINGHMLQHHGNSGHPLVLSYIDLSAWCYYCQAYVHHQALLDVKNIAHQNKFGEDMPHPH
Assay: HDAC6 enzyme inhibitory assay (HDAC-Glo I/II Assay kit, luminescence)
Format: biochemical
Details: 10 μM test compound; wells without enzyme = 100% inhibition; read-out: HDAC6 inhibitory rate (%) (10 μM)
Method: HDAC6 Enzyme Inhibitory Assay
HDAC6 enzyme prepared by transducing full length HDAC6 gene into Sf-9 insect cells and purifying by GST affinity column were purchased from SignalChem. Using this enzyme, HDAC6 enzyme inhibitory activities of the compound of the present invention were evaluated. Enzymes were used after preserved at −70° C. HDAC6 enzyme inhibitory activity of the compound of the present invention was measured using HDAC-Glo™ I/II Assay kit (Promega) according to the following experimental method. The test compound diluted with assay buffer (24 mM Tris-HCl (pH 7.5), 1 mM MgCl2, 0.35 mM KCl, 135 mM NaCl, 0.6 mM Glutathione, 0.01% Tween-20) was added to a 384-well plate by each 2 μL. Then, HDAC6 enzyme solution diluted with assay buffer was added thereto by each 4 μL, and the plate was incubated at room temperature for 60 min. After incubated, HDAC substrate-Developer solution prepared according to Promega protocol attached to the assay kit was added to the 384-well plate by each 2 μL, and the enzyme reaction was started. After reacting at room temperature for 20 min, luminescence level was measured using plate reader Envision (PerkinElmer). The inhibitory activity of each compound of Example was calculated as a relative activity value when luminescence level in wells without enzyme is considered as 100% inhibition.

inhibition at 10 µM [%]	Compound
96	Cc1cc(COc2cccnc2-c2cc(F)cc(-c3nnc(C(F)F)o3)c2)nn1C [Example 10a, 2-(3-[5-(difluoromethyl)-1,3,4-oxadiazol-2-yl]-5-fluorophenyl}-3-[(1,5-dimethyl-1H-pyrazol-3-yl)methoxy]pyridine]
100	CN1C(=O)c2cc(-c3nnc(C(F)F)o3)ccc2CN1c1ccc(F)cc1 [Example 10b, 7-[5-(difluoromethyl)-1,3,4-oxadiazol-2-yl]-3-(4-fluorophenyl)-2-methyl-3,4-dihydrophthalazin-1(2H)-one]
97	O=C1c2cc(-c3nnc(C(F)F)o3)ccc2CN1N(Cc1cnn(C2CC2)c1)Cc1cnn(C2CC2)c1 [Example 10c, 2-{bis[(1-cyclopropyl-1H-pyrazol-4-yl)methyl]amino}-6-[5-(difluoromethyl)-1,3,4-oxadiazol-2-yl]-2,3-dihydro-1H-isoindol-1-one]
94	Fc1cc(-c2nnc(C(F)F)o2)cc(-c2ncccc2OCc2ccccn2)c1 [Example 11a, 2-{3-[5-(difluoromethyl)-1,3,4-oxadiazol-2-yl]-5-fluorophenyl}-3-[(pyridin-2-yl)methoxy]pyridine]
99	O=C1NN(C2CCCCC2)Cc2ccc(-c3nnc(C(F)F)o3)cc21 [Example 11b, 3-cyclohexyl-7-[5-(difluoromethyl)-1,3,4-oxadiazol-2-yl]-3,4-dihydrophthalazin-1(2H)-one]
99	COCCOC(=O)N(Cc1ccc(F)cc1)N1Cc2ccc(-c3nnc(C(F)F)o3)cc2C1=O [Example 11c, 2-methoxyethyl {6-[5-(difluoromethyl)-1,3,4-oxadiazol-2-yl]-1-oxo-1,3-dihydro-2H-isoindol-2-yl}[(4-fluorophenyl)methyl]carbamate]
99	Fc1cc(-c2nnc(C(F)F)o2)cc(-c2ncccc2OCC2CCOC2)c1 (centres unmarked) [Example 12a, 2-{3-[5-(difluoromethyl)-1,3,4-oxadiazol-2-yl]-5-fluorophenyl}-3-[(oxolan-3-yl)methoxy]pyridine]
98	CN1C(=O)c2cc(-c3nnc(C(F)F)o3)ccc2OC1(C)c1ccccn1 (centres unmarked) [Example 12b, 6-[5-(difluoromethyl)-1,3,4-oxadiazol-2-yl]-2,3-dimethyl-2-(pyridin-2-yl)-2,3-dihydro-4H-1,3-benzoxazin-4-one]
98	O=C(CC(F)(F)F)N(Cc1cnn(C2CC2)c1)N1Cc2ccc(-c3nnc(C(F)F)o3)cc2C1=O [Example 12c, N-[(1-cyclopropyl-1H-pyrazol-4-yl)methyl]-N-{6-[5-(difluoromethyl)-1,3,4-oxadiazol-2-yl]-1-oxo-1,3-dihydro-2H-isoindol-2-yl}-3,3,3-trifluoropropanamide]
92	COCCOc1cccnc1-c1cc(F)cc(-c2nnc(C(F)F)o2)c1 [Example 13a, 2-{3-[5-(difluoromethyl)-1,3,4-oxadiazol-2-yl]-5-fluorophenyl}-3-(2-methoxyethoxy)pyridine]
99	CN1C(=O)c2cc(-c3nnc(C(F)F)o3)ccc2CC1(C)c1ccc(F)cc1 (centres unmarked) [Example 13b, 7-[5-(difluoromethyl)-1,3,4-oxadiazol-2-yl]-3-(4-fluorophenyl)-2,3-dimethyl-3,4-dihydroisoquinolin-1(2H)-one]
99	O=C(OCC(F)F)N(Cc1cnn(C2CC2)c1)N1Cc2ccc(-c3nnc(C(F)F)o3)cc2C1=O [Example 13c, 2,2-difluoroethyl [(1-cyclopropyl-1H-pyrazol-4-yl)methyl]{6-[5-(difluoromethyl)-1,3,4-oxadiazol-2-yl]-1-oxo-1,3-dihydro-2H-isoindol-2-yl}carbamate]

The next lines start with the molecule.

Compound	inhibition at 10 µM [%]
CC(C)(C)OC(=O)N(Cc1ccccc1)N1Cc2ccc(-c3nnc(C(F)F)o3)cc2C1=O [Example 4c, tert-butyl benzyl {6-[5-(difluoromethyl)-1,3,4-oxadiazol-2-yl]-1-oxo-1,3-dihydro-2H-isoindol-2-yl}carbamate]	100
Fc1cc(-c2nnc(C(F)F)o2)cc(-c2ncccc2OCc2ccccc2)c1 [Example 5a, 3-(benzyloxy)-2-{3-[5-(difluoromethyl)-1,3,4-oxadiazol-2-yl]-5-fluorophenyl}pyridine]	98
O=C1c2cc(-c3nnc(C(F)F)o3)ccc2OCN1Cc1ccccc1 [Example 5b, 3-benzyl-6-[5-(difluoromethyl)-1,3,4-oxadiazol-2-yl]-2,3-dihydro-4H-1,3-benzoxazin-4-one]	71
CC(C)CN(C(=O)OC(C)(C)C)N1Cc2ccc(-c3nnc(C(F)F)o3)cc2C1=O [Example 5c, tert-butyl {6-[5-(difluoromethyl)-1,3,4-oxadiazol-2-yl]-1-oxo-1,3-dihydro-2H-isoindol-2-yl}(2-methylpropyl)carbamate]	99
Fc1cc(-c2nnc(C(F)F)o2)cc(-c2nccn2Cc2ccccn2)c1 [Example 6a]	99
CN1C(=O)c2cc(-c3nnc(C(F)F)o3)ccc2O[C@]1(C)c1ccccc1 [Example 6b, (2R)-6-[5-(difluoromethyl)-1,3,4-oxadiazol-2-yl]-2,3-dimethyl-2-phenyl-2,3-dihydro-4H-1,3-benzoxazin-4-one]	99
O=C1c2cc(-c3nnc(C(F)F)o3)ccc2CN1NCc1ccc(F)cc1 [Example 6c, 6-[5-(difluoromethyl)-1,3,4-oxadiazol-2-yl]-2-{[(4-fluorophenyl)methyl]amino}-2,3-dihydro-1H-isoindol-1-one]	99
Fc1cc(-c2nnc(C(F)F)o2)cc(-c2ncccc2OCC2CCOCC2)c1 [Example 7a, 2-{3-[5-(difluoromethyl)-1,3,4-oxadiazol-2-yl]-5-fluorophenyl]-3-[(oxan-4-yl)methoxy]pyridine]	100
CN1C(=O)c2cc(-c3nnc(C(F)F)o3)ccc2OC1(C)c1ccc(F)cc1 (centres unmarked) [Example 7b, 6-[5-(difluoromethyl)-1,3,4-oxadiazol-2-yl]-2-(4-fluorophenyl)-2,3-dimethyl-2,3-dihydro-4H-1,3-benzoxazin-4-one]	100
O=C1c2cc(-c3nnc(C(F)F)o3)ccc2CN1N(Cc1ccc(F)cc1)Cc1ccc(F)cc1 [Example 7c, 2-{bis[(4-fluorophenyl)methyl]amino}-6-[5-(difluoromethyl)-1,3,4-oxadiazol-2-yl]-2,3-dihydro-1H-isoindol-1-one]	100
Fc1cc(-c2nnc(C(F)F)o2)cc(-c2ncccc2OC2CCOCC2)c1 [Example 8a, 2-{3-[5-(difluoromethyl)-1,3,4-oxadiazol-2-yl]-5-fluorophenyl}-3-[(oxan-4-yl)oxy]pyridine]	98
CCN(Cc1ccccc1)N1Cc2ccc(-c3nnc(C(F)F)o3)cc2C1=O [Example 8c, 2-[benzyl (ethyl)amino]-6-[5-(difluoromethyl)-1,3,4-oxadiazol-2-yl]-2,3-dihydro-1H-isoindol-1-one]	95
Cc1ccc(COc2cccnc2-c2cc(F)cc(-c3nnc(C(F)F)o3)c2)cc1 [Example 9a]	79
O=C1c2cc(-c3nnc(C(F)F)o3)ccc2CN1NCc1cnn(C2CC2)c1 [Example 9c, 2-{[(1-cyclopropyl-1H-pyrazol-4-yl)methyl]amino}-6-[5-(difluoromethyl)-1,3,4-oxadiazol-2-yl]-2,3-dihydro-1H-isoindol-1-one]	97
